This is an account of results in patent US12187723B2 (BRISTOL-MYERS SQUIBB COMPANY, priority 2019, dated 2025).

The target in the experiment is T1, human TLR7 (Homo sapiens, UniProt Q9NYK1).
T1 construct: host or cells: HEK-Blue cells
T1 sequence (Q9NYK1 27-1049): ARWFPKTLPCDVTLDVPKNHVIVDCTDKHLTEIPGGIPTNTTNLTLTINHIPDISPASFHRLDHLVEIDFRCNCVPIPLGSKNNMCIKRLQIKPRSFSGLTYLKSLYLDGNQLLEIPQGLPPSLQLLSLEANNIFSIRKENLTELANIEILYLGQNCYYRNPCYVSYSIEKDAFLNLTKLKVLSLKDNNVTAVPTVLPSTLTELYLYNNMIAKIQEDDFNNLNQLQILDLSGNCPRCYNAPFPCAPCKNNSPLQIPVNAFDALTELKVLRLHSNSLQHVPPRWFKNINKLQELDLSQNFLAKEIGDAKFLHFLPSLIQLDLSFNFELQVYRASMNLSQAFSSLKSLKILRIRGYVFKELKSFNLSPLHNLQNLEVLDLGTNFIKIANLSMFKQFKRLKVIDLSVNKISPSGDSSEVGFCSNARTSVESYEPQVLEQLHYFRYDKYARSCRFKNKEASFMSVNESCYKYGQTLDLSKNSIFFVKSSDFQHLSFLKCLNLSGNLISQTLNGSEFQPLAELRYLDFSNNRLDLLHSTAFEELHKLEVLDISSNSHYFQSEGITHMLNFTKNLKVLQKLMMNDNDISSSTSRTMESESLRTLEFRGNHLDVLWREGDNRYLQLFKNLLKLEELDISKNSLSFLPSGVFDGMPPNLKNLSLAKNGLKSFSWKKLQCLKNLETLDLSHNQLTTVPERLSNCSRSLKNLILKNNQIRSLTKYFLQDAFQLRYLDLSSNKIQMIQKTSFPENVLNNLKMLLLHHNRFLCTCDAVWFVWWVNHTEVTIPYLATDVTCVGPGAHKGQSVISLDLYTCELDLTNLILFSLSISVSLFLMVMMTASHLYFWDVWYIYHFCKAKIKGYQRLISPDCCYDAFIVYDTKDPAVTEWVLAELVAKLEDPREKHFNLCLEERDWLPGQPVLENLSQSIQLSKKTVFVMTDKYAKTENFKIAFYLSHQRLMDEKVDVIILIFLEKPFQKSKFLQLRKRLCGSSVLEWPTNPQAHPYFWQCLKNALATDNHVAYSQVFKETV
Put plainly: TLR7 inhibition reporter assay (HEK-Blue SEAP). Type of experiment: cell-based. As to conditions: HEK-Blue cells overexpressing human TLR7, gardiquimod 7.5 μM, 22 hour incubation. An outline of the steps:
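Dose-response testing from 0.05 nM to 50 μM final was done on reporter cells for 22 hours at 37° C. Secreted SEAP was then detected, and inhibition was calculated as percent reduction of the agonist-plus-DMSO signal compared with wells given a known inhibitor.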
One may read the IC50 as the concentration needed to halve the response being measured. The low end stands for greater potency, the high end for weaker potency. In the case of `Cc1cc2c(cc1-c1cc(C)c3ncnn3c1)[nH]c(=O)n2[C@@H]1CCCN(CC(C)(C)C)C1` [Example 26, (R)-6-methyl-5-(8-methyl-[1,2,4]triazolo[1,5-a]pyridin-6-yl)-1-(1-neopentylpiperidin-3-yl)-1,3-dihydro-2H-benzo[d]imidazol-2-one], 235 nM corresponded to half-maximal inhibition (IC50).
`Cc1cc2c(cc1-c1cc(C)c3ncnn3c1)[nH]c(=O)n2[C@H]1CC[C@H](NC(C)C)CC1` [Example 25, 1-((1r,4s)-4-(isopropylamino)cyclohexyl)-6-methyl-5-(8-methyl-[1,2,4]triazolo[1,5-a]pyridin-6-yl)-1,3-dihydro-2H-benzo[d]imidazol-2-one] returned a 50% inhibitory concentration (IC50) of 20.2 nM.
As for `COc1cc(-c2cc3[nH]c(=O)n(C4CCC(N5CC6(C5)CS(=O)(=O)C6)CC4)c3cc2C(C)C)cn2ncnc12` (single isomer, unassigned) [Example 245, 1-(4-(2,2-dioxido-2-thia-6-azaspiro[3.3]heptan-6-yl)cyclohexyl)-6-isopropyl-5-(8-methoxy-[1,2,4]triazolo[1,5-a]pyridin-6-yl)-1,3-dihydro-2H-benzo[d]imidazol-2-one], the figure is 5.96 nM.
